Reference: patent US20100003217A1, “Compounds and Pharmaceutical Compositions for the Treatment of Viral Infections” (priority 2008, published 2010)
Values joined by “and” are separate entries in the source; they are usually repeats but may differ in a detail not shown here. Equal values may be shown once.

System: rat primary hepatocytes
Experiment: Metabolic disposition of [^14C]-Compound 1 and [^14C]-2′-C-methyl guanosine in rat primary hepatocytes (incubation medium, cellular extracts, nucleotide levels)
Type: in vitro ADME, Sprague Dawley rat
Procedure: Primary hepatocytes: Freshly isolated cells from animal and human liver were obtained in suspension on ice. Cells were pelleted by centrifugation at 70-75×g (rat) or 95-90×g (monkey and human) and resuspended at 0.8 million cells per mL of platting medium (William's E supplemented with 5% FBS, 0.5% penicillin-streptomycin, 1% L-glutamine, 4 μg/mL insulin and 1 μM dexamethasone). Multi-well collagen I-coated plates (rat tail collagen type I; 12- or 6-well) were then seeded by addition of 1 mL (12-well; 0.8 million cells/well) or 2 mL (6-well; 1.6 million cells/well) of cell suspension. The plates were gently shaken to evenly distribute the cells and placed in an incubator at 37° C. for approximately 4 to 6 hours to allow cells to attach. Once cells were attached, the platting medium was removed and replaced with hepatocyte culture medium (William's E supplemented with penicillin-streptomycin, 1% L-glutamine, 1% insulin-transferrin-selenium and 0.1 μM dexamethasone). Cells were left overnight in an incubator at 37° C. to acclimatize to culture and the medium.
Hepatocyte incubations with radiolabeled Compound 1 and 2′-C-methyl guanosine, both labeled in the C-8 position of the guanine moiety, were conducted at a final volume of 2.0 mL hepatocyte culture medium/well ([…]). Culture medium from overnight incubation of cells was removed and replaced with fresh medium, pre-warmed to 37° C., containing 1 or 10 μM [^14C]-Compound 1 ([…]) or [^14C]-2′-C-methyl guanosine (127 DPM/μmol) from a stock solution in DMSO (final DMSO concentration was 0.1%) or 50% ethanol (final ethanol concentration was 0.2%). After 1, 4, 8 and 24 hours, 0.5-1.0 mL of incubation medium was removed and stored at −20° C. until analysis (described below). The remaining medium was discarded and cell monolayers were carefully washed two times with ice-cold PBS. Following the last wash, all PBS was carefully removed and 1.0 mL of extraction solution (ice-cold 70% methanol) added. Cells were scrapped off and suspended in the extraction solution, transferred to 2 mL polypropylene microfuge tubes and intracellular contents extracted overnight at −20° C.
Preliminary identification of putative metabolites was conducted by comparing the retention time of observed metabolites in incubation medium and cellular extracts with retention times obtained with chemically synthesized standards using the chromatography conditions described below. Further identification of 2′-C-methyl guanosine nucleotides (mono-, di- and triphosphate) was carried out by incubating cellular extract samples with alkaline phosphatase (10 units for 60 min at 37° C.) and comparing the HPLC retention times of the resulting nucleosides with that of authentic 2′-C-methyl guanosine.
Cellular extracts were prepared by centrifugation at 16,000 RCF using an Eppendorf microcentrifuge (Eppendorf, Model 5415D) for 10 min to remove cellular debris. An aliquot of 5-10 μL of the supernatant was added to 5 mL of EcoLite™ (MP, Irvine, Calif.) liquid scintillation cocktail and radioactivity measured by liquid scintillation counting (LSC) using a Beckman Coulter LS6500 multipurpose liquid scintillation counter (Beckman Instruments, Fullerton, Calif.). The remaining sample was then dried using a Labconco refrigerated centrivap concentrator (Labconco, Kansas City, Mo.). Dry extracts were reconstituted in 120 μL of HPLC-grade water and centrifuged at 16,000 RCF using an Eppendorf microcentrifuge for 10 min. Prior to HPLC analysis (described below), radioactivity of the concentrated extracts was measured by LSC using 5 μL aliquots. Extraction recovery was then determined by comparing total radioactivity in extracts before and after drying. The remaining extract was then analyzed by HPLC with online radioactivity detection using a Flow Scintillation Analyzer Radiomatic™ 515TR. Radioactivity in the separated components was quantified by integrating the peaks using Flo-One™ Software (Perkin Elmer Life Sciences). […]

[1] = rat hepatocytes (Rs458), 1 μM [^14C]-Compound 1, 24 h
[2] = rat hepatocytes Rs448, 10 μM [^14C]-2′-C-methyl guanosine, 1 h
[3] = rat hepatocytes Rs448, 10 μM [^14C]-2′-C-methyl guanosine, 4 h
[4] = rat hepatocytes Rs448, 10 μM [^14C]-2′-C-methyl guanosine, 8 h
[5] = rat hepatocytes Rs448, 10 μM [^14C]-2′-C-methyl guanosine, 24 h
[6] = rat hepatocytes Rs458, 1 μM [^14C]-2′-C-methyl guanosine, 1 h
[7] = rat hepatocytes Rs458, 1 μM [^14C]-2′-C-methyl guanosine, 8 h
[8] = rat hepatocytes Rs458, 1 μM [^14C]-2′-C-methyl guanosine, 24 h
[9] = rat hepatocytes Rs458, 10 μM [^14C]-2′-C-methyl guanosine, 1 h
[10] = rat hepatocytes Rs458, 10 μM [^14C]-2′-C-methyl guanosine, 4 h
[11] = rat hepatocytes Rs458, 10 μM [^14C]-2′-C-methyl guanosine, 8 h
[12] = rat hepatocytes Rs458, 10 μM [^14C]-2′-C-methyl guanosine, 24 h

SMILES: C[C@@]1(O)[C@H](O)[C@@H](COP(=O)(O)O)O[C@H]1n1cnc2c(=O)[nH]c(N)nc21 [Compound 5, [(2R)-2-methyl-β-D-ribofuranosyl]guanine 5′-monophosphate]
- 2′-C-methyl guanosine nucleotide levels in cellular extracts [1]: 11.0 pmol/million cells
- metabolites observed in cellular extracts (% of total radioactivity) [1]: 6.68%
- metabolites observed in medium (% of total radioactivity) [1]: no Compound 5 was detected and BLD
- metabolites observed in medium (% of total radioactivity) (rat hepatocytes (lots Rs448, Rs458), 10 μM [^14C]-Compound 1, 0 h): BLD
- metabolites observed in medium (% of total radioactivity) (rat hepatocytes (lots Rs448, Rs458), 10 μM [^14C]-Compound 1, 4 h): 5.3% and 3.6%
- metabolites observed in medium (% of total radioactivity) (rat hepatocytes (lots Rs448, Rs458), 10 μM [^14C]-Compound 1, 8 h): 6.1% and 3.3%
- metabolites observed in medium (% of total radioactivity) (rat hepatocytes (lots Rs448, Rs458), 10 μM [^14C]-Compound 1, 24 h): 2.9% and 2.6%
- 2′-C-methyl guanosine nucleotide levels in cellular extracts (rat hepatocytes Rs448, 10 μM [^14C]-2′-C-methyl guanosine, 0 h): 0 pmol/million cells
- 2′-C-methyl guanosine nucleotide levels in cellular extracts [2]: BLD^a (BLD = below limit of detection (0.02 pmol/million cells))
- Major metabolites observed in cellular extracts (% of total radioactivity) [2]: BLD^a (BLD = below limit of detection (30 DPM))
- 2′-C-methyl guanosine nucleotide levels in cellular extracts [3]: BLD (BLD = below limit of detection (0.02 pmol/million cells))
- Major metabolites observed in cellular extracts (% of total radioactivity) [3]: BLD (BLD = below limit of detection (30 DPM))
- 2′-C-methyl guanosine nucleotide levels in cellular extracts [4]: BLD (BLD = below limit of detection (0.02 pmol/million cells))
- Major metabolites observed in cellular extracts (% of total radioactivity) [4]: BLD (BLD = below limit of detection (30 DPM))
- 2′-C-methyl guanosine nucleotide levels in cellular extracts [5]: 25.0 pmol/million cells
- Major metabolites observed in cellular extracts (% of total radioactivity) [5]: 2.56 % of total radioactivity
- 2′-C-methyl guanosine nucleotide levels in cellular extracts (rat hepatocytes Rs448, 10 μM [^14C]-Compound 1, 0 h): 0 pmol/million cells
- 2′-C-methyl guanosine nucleotide levels in cellular extracts (rat hepatocytes Rs448, 10 μM [^14C]-Compound 1, 1 h): 43.0 pmol/million cells
- 2′-C-methyl guanosine nucleotide levels in cellular extracts (rat hepatocytes Rs448, 10 μM [^14C]-Compound 1, 4 h): 81.0 pmol/million cells
- 2′-C-methyl guanosine nucleotide levels in cellular extracts (rat hepatocytes Rs448, 10 μM [^14C]-Compound 1, 8 h): 79.0 pmol/million cells
- 2′-C-methyl guanosine nucleotide levels in cellular extracts (rat hepatocytes Rs448, 10 μM [^14C]-Compound 1, 24 h): 39.0 pmol/million cells
- 2′-C-methyl guanosine nucleotide levels in cellular extracts (rat hepatocytes Rs458, 1 μM [^14C]-2′-C-methyl guanosine, 0 h): BLD (BLD = below limit of detection (0.02 pmol/million cells))
- 2′-C-methyl guanosine nucleotide levels in cellular extracts [6]: BLD (BLD = below limit of detection (0.02 pmol/million cells))
- Major metabolites observed in cellular extracts (% of total radioactivity) [6]: BLD^a (BLD = below limit of detection (30 DPM))
- 2′-C-methyl guanosine nucleotide levels in cellular extracts [7]: BLD (BLD = below limit of detection (0.02 pmol/million cells))
- Major metabolites observed in cellular extracts (% of total radioactivity) [7]: BLD (BLD = below limit of detection (30 DPM))
- 2′-C-methyl guanosine nucleotide levels in cellular extracts [8]: 5.40 pmol/million cells
- Major metabolites observed in cellular extracts (% of total radioactivity) [8]: 6.83 % of total radioactivity
- 2′-C-methyl guanosine nucleotide levels in cellular extracts (rat hepatocytes Rs458, 10 μM [^14C]-2′-C-methyl guanosine, 0 h): 0 pmol/million cells
- 2′-C-methyl guanosine nucleotide levels in cellular extracts [9]: BLD (BLD = below limit of detection (0.02 pmol/million cells))
- Major metabolites observed in cellular extracts (% of total radioactivity) [9]: BLD^a (BLD = below limit of detection (30 DPM))
- 2′-C-methyl guanosine nucleotide levels in cellular extracts [10]: BLD (BLD = below limit of detection (0.02 pmol/million cells))
- Major metabolites observed in cellular extracts (% of total radioactivity) [10]: BLD (BLD = below limit of detection (30 DPM))
- 2′-C-methyl guanosine nucleotide levels in cellular extracts [11]: BLD (BLD = below limit of detection (0.02 pmol/million cells))
- Major metabolites observed in cellular extracts (% of total radioactivity) [11]: BLD (BLD = below limit of detection (30 DPM))
- 2′-C-methyl guanosine nucleotide levels in cellular extracts [12]: 88.0 pmol/million cells
- Major metabolites observed in cellular extracts (% of total radioactivity) [12]: 9.39 % of total radioactivity
- 2′-C-methyl guanosine nucleotide levels in cellular extracts (rat hepatocytes Rs458, 10 μM [^14C]-Compound 1, 0 h): 0 pmol/million cells
- 2′-C-methyl guanosine nucleotide levels in cellular extracts (rat hepatocytes Rs458, 10 μM [^14C]-Compound 1, 1 h): 28.0 pmol/million cells
- 2′-C-methyl guanosine nucleotide levels in cellular extracts (rat hepatocytes Rs458, 10 μM [^14C]-Compound 1, 4 h): 88.0 pmol/million cells
- 2′-C-methyl guanosine nucleotide levels in cellular extracts (rat hepatocytes Rs458, 10 μM [^14C]-Compound 1, 8 h): 86.0 pmol/million cells
- 2′-C-methyl guanosine nucleotide levels in cellular extracts (rat hepatocytes Rs458, 10 μM [^14C]-Compound 1, 24 h): 181 pmol/million cells
